Experimental data as given in publication PMC10525732, “Assessing the Activity under Different Physico-Chemical Conditions, Digestibility, and Innocuity of a GAPDH-Related Fish Antimicrobial Peptide and Analogs Thereof” (Antibiotics, 2023).
≈ marks a conversion by molar mass, not a printed value. Like-named read-outs stand apart in the source and are kept apart here.

System: E. coli ATCC 11229
Assay: Minimal inhibitory concentration (MIC), broth microdilution
Type: cell-based
Details: Escherichia coli
Procedure: It was cultivated in tryptic soy broth (TSB) (BD, Sparks, NV, USA) at 37 °C and subcultured three times before being used for antimicrobial activity assays.
MICs for Escherichia coli ATCC 11229 were determined using a broth microdilution protocol. Briefly, twofold dilutions of peptide solutions ([…]) were made in Mueller Hinton Broth (MHB) (Oxoid, Basingstoke, UK) in 96-well polypropylene clear round bottom microplates (Corning Inc., Corning, NY, USA). Bacteria were cultured for 18 h and then diluted in MHB broth and inoculated in the microplates so that the final inoculum in the wells was 5 × 10^5 CFU/mL. The final volumes in the wells were 200 μL. Plates were then incubated for 16 h at 37 °C. […] Chloramphenicol (Sigma-Aldrich, St. Louis, MI, USA) was used as a positive control to ensure the validity of the tests. […] MBCs were defined as the lowest peptide concentrations that inhibited 99.9% or more of bacterial growth based on the initial 5 × 10^5 CFU/mL inocula in the wells [66]. Three independent repetitions were completed, and two technical replicates were done for each independent repetition.
The impact of different salts on the antimicrobial activity of SJGAP and analogs thereof was tested by determining the effect on their MIC and MBC values. The same procedure as described above was used, but different concentrations of salts were added to the MHB medium in the microplates. To test the impact of monovalent cations, NaCl (Fisher Scientific, Fair Lawn, NJ, USA) and KCl (EMD, Gibbstown, NJ, USA) were tested at final concentrations of 50, 150, and 300 mM in the wells.
The stability of the peptides at elevated temperatures was also tested. Mixtures of the peptides solubilized in MHB medium were heated to 100 °C for 15 min in a water bath. After cooling in an ice water bath, the solutions were loaded into the microplates and inoculated with the tested bacteria to conduct the MIC and MBC assays. For all tested conditions, three independent repetitions and two technical replicates for each of these repetitions were completed.

For `O=C(N[C@H](CO)[C@H](O)c1ccc([N+](=O)[O-])cc1)C(Cl)Cl` [Chloramphenicol], the MIC (ATCC11229, 16 h, MHB + 1 mM CaCl2, 16 h, 37 °C, 5 × 10^5 CFU/mL, three independent repetitions, n.a. = no activity, read-out: MIC) was 8 µg/mL, the MIC (ATCC11229, MHB + 1 mM MgCl2, n.a. = no activity, read-out: MIC) was 8 µg/mL and the MIC (ATCC11229, MHB + 5 mM CaCl2, n.a. = no activity, read-out: MIC) was 8 µg/mL. For the same molecule, the MIC (ATCC11229, MHB + 5 mM MgCl2, n.a. = no activity, read-out: MIC) was 8 µg/mL, the MIC (ATCC11229, MHB + 10 mM CaCl2, n.a. = no activity, read-out: MIC) was 8 µg/mL and the MIC (ATCC11229, MHB + 10 mM MgCl2, n.a. = no activity, read-out: MIC) was 8 µg/mL. For the same molecule, the MIC (ATCC11229, MHB + 50 mM KCl, n.a. = no activity, * very weak bacterial growth detected, read-out: MIC) was 8 µg/mL, the MIC (ATCC11229, MHB + 50 mM NaCl, n.a. = no activity, * very weak bacterial growth detected, read-out: MIC) was 8 µg/mL and the MIC (ATCC11229, MHB + 150 mM KCl, n.a. = no activity, * very weak bacterial growth detected, read-out: MIC) was 4 µg/mL. It also gave an MIC (ATCC11229, MHB + 150 mM NaCl, n.a. = no activity, * very weak bacterial growth detected, read-out: MIC) of 4 µg/mL, an MIC (ATCC11229, MHB + 300 mM KCl, n.a. = no activity, read-out: MIC) of 2 µg/mL and an MIC (ATCC11229, MHB + 300 mM NaCl, n.a. = no activity, read-out: MIC) of 4 µg/mL. For the same molecule, the MIC (ATCC11229, […], peptide in MHB heated 100 °C, 15 min in water bath, cooled, then assayed, n.a. = no activity, read-out: MIC after heating treatment) was 8 µg/mL (≈ 24.8 µM), the MIC (ATCC11229, pH 5, MHB adjusted to pH 5 with 50 mM citrate buffer, * very weak bacterial growth detected, read-out: MIC) was 0.5 µg/mL (≈ 1.55 µM) and the MIC (ATCC11229, pH 6, MHB adjusted to pH 6 with 50 mM citrate buffer, * very weak bacterial growth detected, read-out: MIC) was 2 µg/mL (≈ 6.19 µM). The MIC (ATCC11229, pH 7, MHB adjusted to pH 7 with 50 mM phosphate buffer, n.a. = no activity, read-out: MIC) was 4 µg/mL (≈ 12.4 µM), the MIC (ATCC11229, pH 8, MHB adjusted to pH 8 with 50 mM phosphate buffer, n.a. = no activity, read-out: MIC) was 4 µg/mL (≈ 12.4 µM) and the MIC (ATCC11229, unmodified MHB (Ctrl −), n.a. = no activity, read-out: MIC) was 8 µg/mL (≈ 24.8 µM).
